In publication PMC10488149 (International Journal of Molecular Sciences, 2023):

Key:
[1] = biological target: T1, α1-acid glycoprotein (AGP) (Homo sapiens, UniProt P02763); experiment: Fluorescence titration
From the text: Fluorescence spectra were collected using an emission detector module of the ChirascanPlus spectropolarimeter (APL), fixing the PMU of the detector at 600 mV. For every measurement, a 1 cm quartz cell, which is suitable for CD and fluorescence, was used. Experimental details: 1 cm cell pathlength, 500–310 nm emission scan, λexc 305 nm, and 5 nm excitation bandwidth.

[2] = biological target: T2, human serum albumin (HSA) (Homo sapiens, UniProt P02768); experiment: Thermal denaturation followed by CD at 191 nm; type: binding; details: HSA with ligand
T2 construct: purchased Sigma A3782
Experimental: (§1) The Hill fitting was performed with OriginLab.
(§2) The evaluation of molar enthalpies (ΔHm) and entropies (ΔSm) at the melting temperature for the melting process was calculated assuming a two-state native-to-unfolded model. The molar ratios at different temperatures were determined using the linear extrapolations of plateau at T >> Tm and T << Tm for the Boltzmann fitting curves, assuming that only denatured protein was present at T >> Tm and only native at T << Tm. The reversibility was assumed to be around Tm ± 5 °C, and the relative molar ratios for native and denatured species was used to determine the equilibrium constants and the associated Gibbs free energy (ΔGm, from ΔGm = −RT·lnK). Following the given relationship, ΔGm was supposed to be ~0 at the Tm (K^(Tm) ~ 1). ΔHm and ΔSm were calculated at Tm by interpolating with a linear model the ±5 °C region of the ΔGm vs. T curve around Tm, assuming the intercept corresponding to ΔHm, previous correction from °C to Kelvin, and the slope to −ΔSm, assuming a y = a − bx model, where ΔGm^(Tm) = ΔHm^(Tm) − TmΔSm^(Tm) at ΔGm^(Tm) = 0.
(§3) For the thermal denaturations, Boltzmann fitting with the equation y = y0 + A * (frac/(1 + exp ((x − x01)/k1)) + (1 − frac)/(1 + exp((x − x02)/k2))) was used. The SRCD spectra as a function of temperature were recorded with B23 module B with synchrotron operation at 300 or 350 mA, using rotating cell for thermal denaturation with 0.02 cm cell pathlength, 0.5 mm slit, 1 sec integration time, and 1 nm increment in the 260–180 nm spectral region.

[3] = biological target: T1, α1-acid glycoprotein (AGP); type: binding
Experimental: as §1, §2, §3

[4] = biological target: T1, α1-acid glycoprotein (AGP); experiment: in vitro; details: isolated α1-acid glycoprotein (AGP) in solution
Experimental: SRCD single-spectra and UV denaturation experiments were recorded on the module B unit at B23 (Diamond Light Source, Didcot, UK) using a 6-cell sample turret. The following are the experimental parameters for UV denaturation: 30 scans, 260–180 nm range, 0.5 mm slit, 1 s integration time, 1 nm increment. The thermal denaturation experiments were performed with an Applied Photophysics (APL) ChirascanPlus spectropolarimeter. […] The baseline of water or buffer was subtracted from the CD spectra of proteins with or without ligands. Far-UV (180–250 nm) denaturation SRCD measurements were collected in 0.02 cm rotating cells with a 70 μL volume. Thermal denaturations were recorded with both B23 beamline and ChirascanPlus (APL, Leatherhead, UK). For CD titration, the protocol used was to measure the CD spectrum of each protein–ligand mixture at various ligand molar ratios by adding a small aliquot of ligand (few microliters of an appropriate concentration of ligand stock solution) to the protein in the cuvette cell. […] The same method was used for the titration via fluorescence spectroscopy.
The CD spectra were processed using CD Apps [27] and OriginPro. […] The evaluated parameters of melting temperature (Tm) were reported in °C and half-live (t1/2) for photo degradation in s (y = A1exp (−x/t1) + y0, t1/2 = t1log2). […]

T1 sequence (P02763 19-201): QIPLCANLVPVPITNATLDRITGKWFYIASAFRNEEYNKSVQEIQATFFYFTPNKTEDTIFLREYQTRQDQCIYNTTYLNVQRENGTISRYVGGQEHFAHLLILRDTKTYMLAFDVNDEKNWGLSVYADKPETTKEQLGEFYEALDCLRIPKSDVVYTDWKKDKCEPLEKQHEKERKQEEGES
T2 sequence (P02768 25-609): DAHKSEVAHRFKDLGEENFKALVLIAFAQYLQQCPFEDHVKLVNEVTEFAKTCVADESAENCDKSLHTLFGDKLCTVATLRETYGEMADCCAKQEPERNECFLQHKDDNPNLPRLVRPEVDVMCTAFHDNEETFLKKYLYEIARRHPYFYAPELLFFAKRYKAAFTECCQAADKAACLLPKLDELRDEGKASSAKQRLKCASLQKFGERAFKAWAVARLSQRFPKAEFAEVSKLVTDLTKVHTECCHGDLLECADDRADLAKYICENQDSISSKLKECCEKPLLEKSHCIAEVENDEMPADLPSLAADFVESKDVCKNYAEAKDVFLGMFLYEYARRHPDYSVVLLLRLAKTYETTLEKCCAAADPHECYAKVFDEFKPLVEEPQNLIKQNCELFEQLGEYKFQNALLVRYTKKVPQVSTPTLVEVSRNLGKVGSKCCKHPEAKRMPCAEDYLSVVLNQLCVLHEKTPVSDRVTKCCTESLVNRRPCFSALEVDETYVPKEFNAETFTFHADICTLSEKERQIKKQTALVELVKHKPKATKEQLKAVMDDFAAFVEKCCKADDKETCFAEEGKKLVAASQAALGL

Row | SMILES | Kd [1] | Kd ([1]; isolated α1-acid glycoprotein (AGP) in solution) | Tm (°C) [A] ([2]; Boltzmann fitting of experimental data, 191 nm, HSA alone 74.1) | Tm (°C) [B] ([2]; T at which ΔGm,Tm = 0, 191 nm, HSA alone 67.3) | ΔHm, Tm ([2]; linear fitting around Tm, HSA alone 85.8) | ΔSm, Tm ([2]; linear fitting around Tm, HSA alone 252.3) | Tm (°C) [B] [3] | ΔHm, Tm ([3]; AGP with ligand, linear fitting around Tm, AGP alone 127.8) | ΔSm, Tm ([3]; AGP with ligand, linear fitting around Tm, AGP alone 392.1) | Kd [4]
1 | Cc1c(N)nc([C@H](CC(N)=O)NC[C@H](N)C(N)=O)nc1C(=O)N[C@H](C(=O)N[C@H](C)[C@@H](O)[C@H](C)C(=O)N[C@H](C(=O)NCCc1nc(-c2nc(C(=O)NCCC[S+](C)C)cs2)cs1)[C@@H](C)O)[C@@H](O[C@@H]1O[C@@H](CO)[C@@H](O)[C@H](O)[C@@H]1O[C@H]1O[C@H](CO)[C@@H](O)[C@H](OC(N)=O)[C@@H]1O)c1c[nH]cn1 [A2, bleomycin A2] | 13.2 µM | – | – | – | – | – | – | – | – | –
2 | Cc1c(N)nc([C@H](CC(N)=O)NC[C@H](N)C(N)=O)nc1C(=O)N[C@H](C(=O)N[C@H](C)[C@@H](O)[C@H](C)C(=O)N[C@H](C(=O)NCCc1nc(-c2nc(C(=O)NCCCCNC(=N)N)cs2)cs1)[C@@H](C)O)[C@@H](O[C@@H]1O[C@@H](CO)[C@@H](O)[C@H](O)[C@@H]1O[C@H]1O[C@H](CO)[C@@H](O)[C@H](OC(N)=O)[C@@H]1O)c1c[nH]cn1 [B2, bleomycin B2] | – | 13.7 µM | 65.0 °C | 62.2 °C | 91.0 kJ^.mol^−1 | 271.6 J·K^−1·mol^−1 | 51.7 °C | 122.3 kJ^.mol^−1 | 376.5 J·K^−1·mol^−1 | 1.37 µM
